From US10647713B2 (Nimbus Lakshmi, Inc., priority 2016, dated 2020)

Biological target: human TYK2 (JH2domain-pseudokinase) (Homo sapiens (Human), UniProt P29597)
Assay: TYK2 JH2 Domain Binding Assay (KINOMEscan, DiscoveRx)
Conditions: 11-point dilution, duplicate
Procedure, shortened: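 TYK2 JH2 (G556–D888)–NFkB DBD fusion, DNA-tagged, from HEK293 extracts (<0.1 nM) competed against immobilised biotinylated ligand for 1 h at room temperature, 0.9% DMSO. Bead-retained kinase quantified by qPCR; Kd from 11-point 3-fold series (top 30,000 nM, duplicate), Hill fit with slope −1.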

human TYK2 (JH2domain-pseudokinase), sequence (P29597 556-888): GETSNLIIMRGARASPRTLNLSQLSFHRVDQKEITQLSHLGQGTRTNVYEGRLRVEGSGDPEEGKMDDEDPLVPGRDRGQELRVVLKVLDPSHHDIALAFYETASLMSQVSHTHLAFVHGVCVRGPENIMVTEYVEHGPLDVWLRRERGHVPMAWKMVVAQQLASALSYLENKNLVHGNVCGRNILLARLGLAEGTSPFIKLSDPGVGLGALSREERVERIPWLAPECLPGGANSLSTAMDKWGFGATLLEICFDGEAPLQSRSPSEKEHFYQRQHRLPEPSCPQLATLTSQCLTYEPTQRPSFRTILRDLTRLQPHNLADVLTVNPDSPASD

| Structure (SMILES) | Kd [nM] |
| --- | --- |
| CS(=O)(=O)c1cc(C2CCOCC2)ccc1Nc1cc(NC(=O)C2CC2)nc2[nH]c(C(F)F)nc12 [I-232, N-(2-(difluoromethyl)-7-((2-(methylsulfonyl)-4-(tetrahydro-2H-pyran-4-yl)phenyl)amino)-3H-imidazo[4,5-b]pyridin-5-yl)cyclopropanecarboxamide] | 0.1 to 0.5 |
| Cc1nc2c(Nc3ccc(-c4cnn(C)c4)cc3N(C)S(C)(=O)=O)cc(NC(=O)[C@@H]3CC3(F)F)nc2[nH]1 [I-233, (S)-2,2-difluoro-N-(2-methyl-7-((4-(1-methyl-1H-pyrazol-4-yl)-2-(N-methylmethylsulfonamido)phenyl)amino)-3H-imidazo[4,5-b]pyridin-5-yl)cyclopropane-1-carboxamide] | 0.1 to 0.5 |
| Cc1nc2c(Nc3ccc(-c4cnn(C)c4)cc3N(C)S(C)(=O)=O)cc(NC(=O)[C@H]3CC3(F)F)nc2[nH]1 [I-234, (R)-2,2-difluoro-N-(2-methyl-7-((4-(1-methyl-1H-pyrazol-4-yl)-2-(N-methylmethylsulfonamido)phenyl)amino)-3H-imidazo[4,5-b]pyridin-5-yl)cyclopropane-1-carboxamide] | 1 to 10 |
| CN(c1cc(-c2cnn(C)c2)ccc1Nc1cc(NC(=O)[C@H]2C[C@H]2F)nc2[nH]c(C(F)F)nc12)S(C)(=O)=O [I-236, (1R, 2R)—N-(2-(difluoromethyl)-7-((4-(1-methyl-1H-pyrazol-4-yl)-2-(N-methylmethylsulfonamido)phenyl)amino)-3H-imidazo[4,5-b]pyridin-5-yl)-2-fluorocyclopropane-1-carboxamide] | 0.1 to 0.5 |
| Cn1ccc(-c2ccc(Nc3cc(NC(=O)[C@@H]4CC4(F)F)nc4[nH]c(C(F)F)nc34)c(S(C)(=O)=O)c2)n1 [I-237, (S)—N-(2-(difluoromethyl)-7-((4-(1-methyl-1H-pyrazol-3-yl)-2-(methylsulfonyl)phenyl)amino)-3H-imidazo[4,5-b]pyridin-5-yl)-2,2-difluorocyclopropane-1-carboxamide] | 0.5 to 1 |
| Cn1ccc(-c2ccc(Nc3cc(NC(=O)[C@H]4CC4(F)F)nc4[nH]c(C(F)F)nc34)c(S(C)(=O)=O)c2)n1 [I-238, (R)—N-(2-(difluoromethyl)-7-((4-(1-methyl-1H-pyrazol-3-yl)-2-(methylsulfonyl)phenyl)amino)-3H-imidazo[4,5-b]pyridin-5-yl)-2,2-difluorocyclopropane-1-carboxamide] | 1 to 10 |
| Cc1nc2c(Nc3ccc(-c4ccn(C)n4)cc3S(C)(=O)=O)cc(NC(=O)[C@@H]3CC3(F)F)nc2[nH]1 [I-239, (S)-2,2-difluoro-N-(2-methyl-7-((4-(1-methyl-1H-pyrazol-3-yl)-2-(methylsulfonyl)phenyl)amino)-3H-imidazo[4,5-b]pyridin-5-yl)cyclopropane-1-carboxamide] | 0.1 to 0.5 |
| Cc1nc2c(Nc3ccc(-c4ccn(C)n4)cc3S(C)(=O)=O)cc(NC(=O)[C@H]3CC3(F)F)nc2[nH]1 [I-240, (R)-2,2-difluoro-N-(2-methyl-7-((4-(1-methyl-1H-pyrazol-3-yl)-2-(methylsulfonyl)phenyl)amino)-3H-imidazo[4,5-b]pyridin-5-yl)cyclopropane-1-carboxamide] | 1 to 10 |
| Cc1nc2c(Nc3ccc(-c4nn(C)cc4C)cc3S(C)(=O)=O)cc(NC(=O)C3CC3)nc2[nH]1 [I-241, N-(7-((4-(1,4-dimethyl-1H-pyrazol-3-yl)-2-(methylsulfonyl)phenyl)amino)-2-methyl-3H-imidazo[4,5-b]pyridin-5-yl)cyclopropanecarboxamide] | < 0.1 |
| CP(C)(=O)c1ccccc1Nc1cc(NC(=O)C2CC2)nc2[nH]c(C(F)F)nc12 [I-242, N-(2-(difluoromethyl)-7-((2-(dimethylphosphoryl)phenyl)amino)-3H-imidazo[4,5-b]pyridin-5-yl)cyclopropanecarboxamide] | 0.5 to 1 |
| Cc1nc2c(Nc3ccccc3P(C)(C)=O)cc(NC(=O)C3CC3)nc2[nH]1 [I-243, N-(7-((2-(dimethylphosphoryl)phenyl)amino)-2-methyl-3H-imidazo[4,5-b]pyridin-5-yl)cyclopropanecarboxamide] | > 10 |
| Cn1cnc(-c2ccc(Nc3cc(NC(=O)[C@H]4CC4(F)F)nc4[nH]c(C(F)F)nc34)c(S(C)(=O)=O)c2)c1 [I-244, (R)—N-(2-(difluoromethyl)-7-((4-(1-methyl-1H-imidazol-4-yl)-2-(methylsulfonyl)phenyl)amino)-3H-imidazo[4,5-b]pyridin-5-yl)-2,2-difluorocyclopropane-1-carboxamide] | 0.5 to 1 |
| Cn1cnc(-c2ccc(Nc3cc(NC(=O)[C@@H]4CC4(F)F)nc4[nH]c(C(F)F)nc34)c(S(C)(=O)=O)c2)c1 [I-245, (S)—N-(2-(difluoromethyl)-7-((4-(1-methyl-1H-imidazol-4-yl)-2-(methylsulfonyl)phenyl)amino)-3H-imidazo[4,5-b]pyridin-5-yl)-2,2-difluorocyclopropane-1-carboxamide] | 1 to 10 |
| Cc1cn(C)nc1-c1ccc(Nc2cc(NC(=O)C3CC3)nc3[nH]c(C(F)F)nc23)c(S(C)(=O)=O)c1 [I-246, N-(2-(difluoromethyl)-7-((4-(1,4-dimethyl-1H-pyrazol-3-yl)-2-(methylsulfonyl)phenyl)amino)-3H-imidazo[4,5-b]pyridin-5-yl)cyclopropanecarboxamide] | < 0.1 |
| CS(=O)(=O)c1cc([C@@H]2CCCCO2)ccc1Nc1cc(NC(=O)C2CC2)nc2[nH]c(C(F)F)nc12 [I-247, (S)—N-(2-(difluoromethyl)-7-((2-(methylsulfonyl)-4-(tetrahydro-2H-pyran-2-yl)phenyl)amino)-3H-imidazo[4,5-b]pyridin-5-yl)cyclopropanecarboxamide] | 0.1 to 0.5 |
| CS(=O)(=O)c1cc([C@H]2CCCCO2)ccc1Nc1cc(NC(=O)C2CC2)nc2[nH]c(C(F)F)nc12 [I-248, (R)—N-(2-(difluoromethyl)-7-((2-(methylsulfonyl)-4-(tetrahydro-2H-pyran-2-yl)phenyl)amino)-3H-imidazo[4,5-b]pyridin-5-yl)cyclopropanecarboxamide] | < 0.1 |
| Cc1nc2c(Nc3ccccc3N(C(F)F)S(C)(=O)=O)cc(Nc3cccc(C#N)n3)nc2[nH]1 [I-249, N-(2-((5-((6-cyanopyridin-2-yl)amino)-2-methyl-3H-imidazo[4,5-b]pyridin-7-yl)amino)phenyl)-N-(difluoromethyl)methanesulfonamide] | 1 to 10 |
| Cc1nc2c(Nc3ccc(-c4cn(C)cn4)cc3S(C)(=O)=O)cc(NC(=O)[C@@H]3C[C@@H]3F)nc2[nH]1 [I-250, (1S,2S)-2-fluoro-N-(2-methyl-7-((4-(1-methyl-1H-imidazol-4-yl)-2-(methylsulfonyl)phenyl)amino)-3H-imidazo[4,5-b]pyridin-5-yl)cyclopropane-1-carboxamide] | < 0.1 |
| Cc1nc2c(Nc3ccc(-c4cn(C)cn4)cc3S(C)(=O)=O)cc(NC(=O)[C@H]3C[C@H]3F)nc2[nH]1 [I-251, (1R,2R)-2-fluoro-N-(2-methyl-7-((4-(1-methyl-1H-imidazol-4-yl)-2-(methylsulfonyl)phenyl)amino)-3H-imidazo[4,5-b]pyridin-5-yl)cyclopropane-1-carboxamide] | 0.1 to 0.5 |
| CS(=O)(=O)c1cc([C@H]2CCCOC2)ccc1Nc1cc(NC(=O)C2CC2)nc2[nH]c(C(F)F)nc12 [I-252, (R)—N-(2-(difluoromethyl)-7-((2-(methylsulfonyl)-4-(tetrahydro-2H-pyran-3-yl)phenyl)amino)-3H-imidazo[4,5-b]pyridin-5-yl)cyclopropanecarboxamide] | 1 to 10 |
| CS(=O)(=O)c1cc([C@@H]2CCCOC2)ccc1Nc1cc(NC(=O)C2CC2)nc2[nH]c(C(F)F)nc12 [I-253, (S)—N-(2-(difluoromethyl)-7-((2-(methylsulfonyl)-4-(tetrahydro-2H-pyran-3-yl)phenyl)amino)-3H-imidazo[4,5-b]pyridin-5-yl)cyclopropanecarboxamide] | 0.1 to 0.5 |
| Cc1nc2c(Nc3ccc([C@@H]4CCCOC4)cc3S(C)(=O)=O)cc(NC(=O)C3CC3)nc2[nH]1 [I-255, (S)—N-(2-methyl-7-((2-(methylsulfonyl)-4-(tetrahydro-2H-pyran-3-yl)phenyl)amino)-3H-imidazo[4,5-b]pyridin-5-yl)cyclopropanecarboxamide] | 0.1 to 0.5 |
| Cc1nc2c(Nc3ccc([C@H]4CCCCO4)cc3S(C)(=O)=O)cc(NC(=O)[C@H]3CC3(F)F)nc2[nH]1 [I-256, (R)-2,2-difluoro-N-(2-methyl-7-((2-(methylsulfonyl)-4-((R)-tetrahydro-2H-pyran-2-yl)phenyl)amino)-3H-imidazo[4,5-b]pyridin-5-yl)cyclopropane-1-carboxamide] | 0.5 to 1 |
| Cc1nc2c(Nc3ccc([C@H]4CCCCO4)cc3S(C)(=O)=O)cc(NC(=O)[C@@H]3CC3(F)F)nc2[nH]1 [I-257, (S)-2,2-difluoro-N-(2-methyl-7-((2-(methylsulfonyl)-4-((R)-tetrahydro-2H-pyran-2-yl)phenyl)amino)-3H-imidazo[4,5-b]pyridin-5-yl)cyclopropane-1-carboxamide] | 1 to 10 |
| CS(=O)(=O)c1cc(C(F)(F)F)ccc1Nc1cc(NC(=O)C2CC2)nc2[nH]c(C(F)F)nc12 [I-258, N-(2-(difluoromethyl)-7-((2-(methylsulfonyl)-4-(trifluoromethyl)phenyl)amino)-3H-imidazo[4,5-b]pyridin-5-yl)cyclopropanecarboxamide] | 1 to 10 |
| Cc1nc2c(Nc3ccc(C(F)(F)F)cc3S(C)(=O)=O)cc(NC(=O)C3CC3)nc2[nH]1 [I-259, N-(2-methyl-7-((2-(methylsulfonyl)-4-(trifluoromethyl)phenyl)amino)-3H-imidazo[4,5-b]pyridin-5-yl)cyclopropanecarboxamide] | 1 to 10 |
| Cc1nc2c(Nc3ccc(-c4cncn4C)cc3S(C)(=O)=O)cc(NC(=O)[C@@H]3C[C@@H]3F)nc2[nH]1 [I-260, (1S,2S)-2-fluoro-N-(2-methyl-7-((4-(1-methyl-1H-imidazol-5-yl)-2-(methylsulfonyl)phenyl)amino)-3H-imidazo[4,5-b]pyridin-5-yl)cyclopropane-1-carboxamide] | < 0.1 |
